Measured values: patent EP4707280A1, “1,4-CINEOLE DERIVATIVE AND INTERMEDIATE THEREOF, HERBICIDE CONTAINING SAID DERIVATIVE AS ACTIVE INGREDIENT, METHOD FOR USING HERBICIDE, AND METHOD FOR PREPARING AGROCHEMICAL COMPOSITION” (HOKKO CHEMICAL INDUSTRY CO., LTD., priority 2023, dated 2024)

Legend:
Assay type in all cases: in vivo
[1] = test system: Echinochloa crus-galli var. formosensis; assay: Test Example 1: herbicidal effect test by soil application in paddy rice; conditions: 120 g active ingredient per 10 ares, applied immediately after sowing, flooded pots, 14 days after application; for pest or weed control at 1200 g/ha: Echinochloa crus-galli, soil, 336 h, read-out: weed inhibition rate
Experimental: Wagner pots with an area of […] were filled with paddy soil, followed by addition of water and incorporation of chemical fertilizer (N:P:K = 16:16:16), after which puddling was performed. After that, seeds of Echinochloa crus-galli var. formosensis, broad-leaved weeds ([…] Monochoria vaginalis), and Scirpus juncoides were sown at a depth of 0 cm to 1 cm, 30 seeds each. Immediately after sowing, the pots were flooded and a water depth of approximately 3 cm was maintained. Subsequent management was conducted in a glass greenhouse. Immediately thereafter, an emulsifiable concentrate prepared according to Formulation Example 5 using the compound shown below was diluted with water, and a specified amount of the diluted solution was applied by dropper. The amount of the active ingredient to be applied was equivalent to 120 g per 10 ares.

[2] = test system: Echinochloa crus-galli var. formosensis; assay: Test Example 2: herbicidal effect test by application during growth period of paddy rice; conditions: 120 g per 10 ares, applied seven days after sowing, flooded pots, 14 days after application; for inhibition at 1200 g/ha: Echinochloa crus-galli, read-out: weed inhibition rate
Experimental: (§1) The present test was conducted in duplicate for each chemical concentration group, and the weed inhibition rate (%) was determined 14 days after chemical application using the following formula (Math. 1). [formula]
Wagner pots with an area of […] were filled with paddy soil, followed by addition of water and incorporation of chemical fertilizer (N:P:K = 16:16:16), after which puddling was performed. After that, seeds of Echinochloa crus-galli var. formosensis, broad-leaved weeds (Monochoria vaginalis), and Scirpus juncoides were sown at a depth of 0 cm to 1 cm, 30 seeds each. Immediately after sowing, the pots were flooded and a water depth of approximately 3 cm was maintained. Subsequent management was conducted in a glass greenhouse. Seven days after sowing, an emulsifiable concentrate prepared according to Formulation Example 5 using the compound shown below was diluted with water, and a specified amount of the diluted solution was applied by dropper. The amount of the active ingredient to be applied was equivalent to 120 g per 10 ares. The test was conducted in duplicate for each chemical concentration group, and the herbicidal effect was evaluated 14 days after chemical application using the same criteria as in Test Example 1.

Digitaria ciliaris [3] = assay: Test Example 3: herbicidal effect test by soil application in upland field; conditions: 120 g per 10 ares, sprayed one day after sowing, 14 days after application; for inhibition at 1200 g/ha: Digitaria ciliaris, read-out: weed inhibition rate
Experimental: as §1
(§2) Pots with an area of 36 cm^2 were filled with upland soil (alluvial loam), twenty seeds each of weeds of Digitaria ciliaris, Echinochloa crus-galli, Chenopodium album, and Amaranthus viridis were uniformly mixed with the top 1 cm layer of soil and the surface was lightly pressed down. One day after sowing, an emulsifiable concentrate prepared according to Formulation Example 5 using the compound shown below was diluted with water, and the diluted solution was sprayed onto the soil surface at a rate of 100 liters per 10 ares. The amount of the active ingredient to be applied was equivalent to 120 g per 10 ares. Fourteen days after chemical application, the herbicidal effect was evaluated according to the same criteria as in Test Example 1.

Echinochloa crus-galli [4] = assay: as above; conditions: 120 g per 10 ares, sprayed one day after sowing, 14 days after application; for inhibition at 1200 g/ha: Echinochloa crus-galli, read-out: weed inhibition rate
Experimental: as §1, §2

Digitaria ciliaris [5] = assay: Test Example 4: herbicidal effect test by stem and leaf treatment in upland field; conditions: 120 g per 10 ares, sprayed seven days after sowing, upland soil, 14 days after application; for inhibition at 1200 g/ha: Digitaria ciliaris, read-out: weed inhibition rate
Experimental: as §1
as §2, with “crus-galli,” for “crus-galli, Chenopodium album,”, “Seven days” for “One day”

Echinochloa crus-galli [6] = assay: as above; conditions: 120 g per 10 ares, sprayed seven days after sowing, upland soil, 14 days after application; for inhibition at 1200 g/ha: Echinochloa crus-galli, read-out: weed inhibition rate

CC(C)[C@]12C[C@@H](OCc3ccccc3OC(F)(F)F)[C@](C)(CC1=O)O2 [2-348, (1R,4S,5R)-1-isopropyl-4-methyl-5-((2-(trifluoromethoxy)benzyl)oxy)-7-oxabicyclo[2.2.1]heptan-2-one]
≥ 80%: pest or weed control at 1200 g/ha [1] | inhibition at 1200 g/ha [2] | inhibition at 1200 g/ha (Digitaria ciliaris [3]) | inhibition at 1200 g/ha (Echinochloa crus-galli [4]) | inhibition at 1200 g/ha (Digitaria ciliaris [5]) | inhibition at 1200 g/ha (Echinochloa crus-galli [6])

CC(C)[C@]12C[C@@H](OCc3cccc(C(F)(F)F)c3)[C@](C)(C[C@@H]1Br)O2 [1-701, (1S,2R,4R,5S)-5-bromo-l-methyl-4-isopropyl-2-[[3-(trifluoromethyl)phenyl]methoxy]-7-oxabicyclo[2.2.1]heptane]
≥ 80%: weed inhibition rate [1] | weed inhibition rate [2] | weed inhibition rate (Digitaria ciliaris [3]) | weed inhibition rate (Echinochloa crus-galli [4]) | weed inhibition rate (Digitaria ciliaris [5]) | weed inhibition rate (Echinochloa crus-galli [6])

CC(C)[C@]12C[C@@H](OCc3cccc(Br)c3)[C@](C)(C[C@@H]1Br)O2 [1-695, (1S,2R,4R,5S)-5-bromo-2-[(3-bromophenyl)methoxy]-1-methyl-4-isopropyl-7-oxabicyclo[2.2.1]heptane]
≥ 80%: pest or weed control at 1200 g/ha [1] | inhibition at 1200 g/ha [2] | inhibition at 1200 g/ha (Digitaria ciliaris [3]) | inhibition at 1200 g/ha (Echinochloa crus-galli [4]) | inhibition at 1200 g/ha (Digitaria ciliaris [5]) | inhibition at 1200 g/ha (Echinochloa crus-galli [6])

CC(C)C12CC(OCc3cccc4ccccc34)C(C)(CC1Br)O2 (stereo not drawn) [1-1383, 5-bromo-1-methyl-2-(naphthalen-1-ylmethoxy)-4-isopropyl-7-oxabicyclo[2.2.1]heptane]
≥ 80%: pest or weed control at 1200 g/ha [1] | inhibition at 1200 g/ha [2] | inhibition at 1200 g/ha (Digitaria ciliaris [3]) | inhibition at 1200 g/ha (Echinochloa crus-galli [4]) | inhibition at 1200 g/ha (Digitaria ciliaris [5]) | inhibition at 1200 g/ha (Echinochloa crus-galli [6])

CC(C)C12CC(OCc3ccc(Cl)cc3Cl)C(C)(CC1Br)O2 (stereo not drawn) [1-1385, 5-bromo-2-[(2,4-dichlorophenyl)methoxy]-1-methyl-4-isopropyl-7-oxabicyclo[2.2.1]heptane]
≥ 80%: pest or weed control at 1200 g/ha [1] | inhibition at 1200 g/ha [2] | inhibition at 1200 g/ha (Digitaria ciliaris [3]) | inhibition at 1200 g/ha (Echinochloa crus-galli [4]) | inhibition at 1200 g/ha (Digitaria ciliaris [5]) | inhibition at 1200 g/ha (Echinochloa crus-galli [6])

CC(C)C12CC(OCc3cccc(Cl)c3)C(C)(CC1Br)O2 (stereo not drawn) [1-1359, 5-bromo-2-[(3-chlorophenyl)methoxy]-1-methyl-4-isopropyl-7-oxabicyclo[2.2.1]heptane]
≥ 80%: pest or weed control at 1200 g/ha [1] | inhibition at 1200 g/ha [2] | inhibition at 1200 g/ha (Digitaria ciliaris [3]) | inhibition at 1200 g/ha (Echinochloa crus-galli [4]) | inhibition at 1200 g/ha (Digitaria ciliaris [5]) | inhibition at 1200 g/ha (Echinochloa crus-galli [6])

CC(C)[C@@]12C[C@H](OCc3c(F)cccc3Br)[C@@](C)(C[C@H]1I)O2 [1-1601, (1R,2S,4S,5R)-2-[(2-bromo-6-fluorophenyl)methoxy]-5-iodo-1-methyl-4-isopropyl-7-oxabicyclo[2.2.1]heptane]
≥ 80%: pest or weed control at 1200 g/ha [1] | inhibition at 1200 g/ha [2] | inhibition at 1200 g/ha (Digitaria ciliaris [3]) | inhibition at 1200 g/ha (Echinochloa crus-galli [4]) | inhibition at 1200 g/ha (Digitaria ciliaris [5]) | inhibition at 1200 g/ha (Echinochloa crus-galli [6])

CC(C)C12CC(OCc3ccc(Cl)cc3)C(C)(CC1Br)O2 (stereo not drawn) [1-1360, 5-bromo-2-[(4-chlorophenyl)methoxy]-1-methyl-4-isopropyl-7-oxabicyclo[2.2.1]heptane]
≥ 80%: pest or weed control at 1200 g/ha [1] | inhibition at 1200 g/ha [2] | inhibition at 1200 g/ha (Digitaria ciliaris [3]) | inhibition at 1200 g/ha (Echinochloa crus-galli [4]) | inhibition at 1200 g/ha (Digitaria ciliaris [5]) | inhibition at 1200 g/ha (Echinochloa crus-galli [6])

COC(=O)c1ccccc1COC1CC2(C(C)C)OC1(C)CC2Br (stereo not drawn) [1-1376, methyl 2-[(5-bromo-1-methyl-4-isopropyl-7-oxabicyclo[2.2.1]heptan-2-yl)oxymethyl]benzoate]
≥ 80%: pest or weed control at 1200 g/ha [1] | inhibition at 1200 g/ha [2] | inhibition at 1200 g/ha (Digitaria ciliaris [3]) | inhibition at 1200 g/ha (Echinochloa crus-galli [4]) | inhibition at 1200 g/ha (Digitaria ciliaris [5]) | inhibition at 1200 g/ha (Echinochloa crus-galli [6])

CC(C)C12CC(OCc3ccccc3C(F)(F)F)C(C)(CC1Br)O2 (stereo not drawn) [1-1367, 5-bromo-1-methyl-4-isopropyl-2-[[2-(trifluoromethyl)phenyl]methoxy]-7-oxabicyclo[2.2.1]heptane]
≥ 80%: pest or weed control at 1200 g/ha [1] | inhibition at 1200 g/ha [2] | inhibition at 1200 g/ha (Digitaria ciliaris [3]) | inhibition at 1200 g/ha (Echinochloa crus-galli [4]) | inhibition at 1200 g/ha (Digitaria ciliaris [5]) | inhibition at 1200 g/ha (Echinochloa crus-galli [6])

CC(C)[C@@]12C[C@H](OCc3ccccn3)[C@@](C)(C[C@H]1Br)O2 [1-1059, 2-[[(1R,2S,4S,5R)-5-bromo-1-methyl-4-isopropyl-7-oxabicyclo[2.2.1]heptan-2-yl]oxymethyl]pyridine]
≥ 80%: pest or weed control at 1200 g/ha [1] | inhibition at 1200 g/ha [2] | inhibition at 1200 g/ha (Digitaria ciliaris [3]) | inhibition at 1200 g/ha (Echinochloa crus-galli [4]) | inhibition at 1200 g/ha (Digitaria ciliaris [5]) | inhibition at 1200 g/ha (Echinochloa crus-galli [6])

CC(C)C12CC(OCc3cccc(I)c3)C(C)(CC1Br)O2 (stereo not drawn) [1-1365, 5-bromo-2-[(3-iodophenyl)methoxy]-1-methyl-4-isopropyl-7-oxabicyclo[2.2.1]heptane]
≥ 80%: pest or weed control at 1200 g/ha [1] | inhibition at 1200 g/ha [2] | inhibition at 1200 g/ha (Digitaria ciliaris [3]) | inhibition at 1200 g/ha (Echinochloa crus-galli [4]) | inhibition at 1200 g/ha (Digitaria ciliaris [5]) | inhibition at 1200 g/ha (Echinochloa crus-galli [6])

CC(C)C12CC(OCc3ccccc3OC(F)(F)F)C(C)(CC1Br)O2 (stereo not drawn) [1-1352, 5-bromo-1-methyl-4-isopropyl-2-[[2-(trifluoromethoxy)phenyl]methoxy]-7-oxabicyclo[2.2.1]heptane]
≥ 80%: pest or weed control at 1200 g/ha [1] | inhibition at 1200 g/ha [2] | inhibition at 1200 g/ha (Digitaria ciliaris [3]) | inhibition at 1200 g/ha (Echinochloa crus-galli [4]) | inhibition at 1200 g/ha (Digitaria ciliaris [5]) | inhibition at 1200 g/ha (Echinochloa crus-galli [6])

CCc1ccccc1COC1CC2(C(C)C)OC1(C)CC2Br (stereo not drawn) [1-1346, 5-bromo-2-[(2-ethylphenyl)methoxy]-1-methyl-4-isopropyl-7-oxabicyclo[2.2.1]heptane]
≥ 80%: pest or weed control at 1200 g/ha [1] | inhibition at 1200 g/ha [2] | inhibition at 1200 g/ha (Digitaria ciliaris [3]) | inhibition at 1200 g/ha (Echinochloa crus-galli [4]) | inhibition at 1200 g/ha (Digitaria ciliaris [5]) | inhibition at 1200 g/ha (Echinochloa crus-galli [6])

CC(C)=CCO[C@H]1C[C@@]2(C(C)C)O[C@]1(C)C[C@H]2I [1-1073, (1R,2S,4S,5R)-5-iodo-1-methyl-2-(3-methylbut-2-enoxy)-4-isopropyl-7-oxabicyclo[2.2.1]heptane]
≥ 80%: pest or weed control at 1200 g/ha [1] | inhibition at 1200 g/ha [2] | inhibition at 1200 g/ha (Digitaria ciliaris [3]) | inhibition at 1200 g/ha (Echinochloa crus-galli [4]) | inhibition at 1200 g/ha (Digitaria ciliaris [5]) | inhibition at 1200 g/ha (Echinochloa crus-galli [6])

CC(C)[C@@]12C[C@H](OCc3c(F)cccc3Cl)[C@@](C)(C[C@H]1Br)O2 [1-1054, (1R,2S,4S,5R)-5-bromo-2-[(2-chloro-6-fluorophenyl)methoxy]-1-methyl-4-isopropyl-7-oxabicyclo[2.2.1]heptane]
≥ 80%: pest or weed control at 1200 g/ha [1] | inhibition at 1200 g/ha [2] | inhibition at 1200 g/ha (Digitaria ciliaris [3]) | inhibition at 1200 g/ha (Echinochloa crus-galli [4]) | inhibition at 1200 g/ha (Digitaria ciliaris [5]) | inhibition at 1200 g/ha (Echinochloa crus-galli [6])

CC(C)[C@@]12C[C@H](OCc3ccccc3Cl)[C@@](C)(C[C@H]1I)O2 [1-1097, (1R,2S,4S,5R)-2-[(2-chlorophenyl)methoxy]-5-iodo-1-methyl-4-isopropyl-7-oxabicyclo[2.2.1]heptane]
≥ 80%: pest or weed control at 1200 g/ha [1] | inhibition at 1200 g/ha [2] | inhibition at 1200 g/ha (Digitaria ciliaris [3]) | inhibition at 1200 g/ha (Echinochloa crus-galli [4]) | inhibition at 1200 g/ha (Digitaria ciliaris [5]) | inhibition at 1200 g/ha (Echinochloa crus-galli [6])
